Measured values: patent publication US20250282784A1, “CYTOCHROME BD OXIDASE INHIBITORS AND USES THEREOF” (UNIVERSITY OF NOTRE DAME DU LAC, priority 2022, published 2025)
pIC50: −log10 of the molar value.

Key:
[1] = system: M. abscessus ATCC 19977T deficient for the expression of the cyt-bcc:aa3 (ΔqcrCAB); assay: ATP levels in M. abscessus deficient for cyt-bcc:aa3 (ΔqcrCAB), 2-fold dose-response; assay type: cell-based, Mycobacterium abscessus; conditions: Mycobacteroides abscessus, read-out: ATP IC50 ΔgcrCAB
Method: (§1) The compounds described and provided herein were evaluated for their potential to inhibit Cytochrome BD oxidase in Mycobacterium abscessus. M. abscessus ATCC 19977T wild-type (WT) and deficient for the expression of the cyt-bcc:aa3 (ΔqcrCAB) were treated with a 2-fold dose-response (starting from 40 μM) of the drugs. ATP levels were measured after 6 to 15 hours of incubation using a commercial kit.
(§2) M. abscessus ATCC 19977T wild-type (WT) and deficient for the expression of the cyt-bcc:aa3 (ΔqcrCAB) were treated with a 2-fold dose-response (starting from 40 μM) of the drugs. ATP levels were measured after 6 to 15 hours of incubation using a commercial kit.

[2] = system: M. abscessus ATCC 19977T wild-type (WT); assay: ATP levels in M. abscessus wild-type, 2-fold dose-response; assay type: cell-based, Mycobacterium abscessus; conditions: Mycobacteroides abscessus, read-out: ATP IC50 WT
Method: as §1, §2

M. abscessus = assay: Killing of M. abscessus by clofazimine with or without Compound 12 (FIG. 1)

Row | Compound | pIC50 [1] | pIC50 [2] | Synergy with clofazimine to kill M. abscessus (M. abscessus; combination of Compound 12 with clofazimine, FIG. 1) | Type of activity of clofazimine against M. abscessus, tested alone (M. abscessus; clofazimine alone) | Type of activity of clofazimine against M. abscessus in the presence of Compound 12 (M. abscessus; in the presence of Compound 12)
1 | Cc1cc2nc(Cl)c3ccccc3n2n1 [Compound 7, S-chloro-2-methylpyrazolo[1,5-a] quinazoline] | < 4.40 | < 4.40 |  |  | 
2 | Cc1cc2nc(NC3CC4(CCC4)C3)c3ccccc3n2n1 [Compound 17, 2-methyl-N-(spiro[3.3]heptan-2-yl)pyrazolo[1,5-a] quinazolin-5-amine] | 5.49 | < 4.40 |  |  | 
3 | Cc1cc2nc(NCC3CC3)c3ccccc3n2n1 [Compound 22, N-(cyclopropylmethyl)-2-methylpyrazolo[1,5-a] quinazolin-5-amine] | 4.71 | < 4.40 |  |  | 
4 | Cc1cc2nc(NC3CC(C)(C)CC(C)(C)C3)c3ccccc3n2n1 [Compound 2, 2-methyl-N-(3,3,5,5-tetramethylcyclohexyl) pyrazolo[1,5-a] quinazolin-5-amine] | < 4.40 | < 4.40 |  |  | 
5 | Cc1cc2nc(NC34CC5CC(CC(C5)C3)C4)c3ccccc3n2n1 [Compound 4, N-((3s,5s,7s)-adamantan-1-yl)-2-methylpyrazolo[1,5-a] quinazolin-5-amine] | 5.01 | < 4.40 |  |  | 
6 | Cc1cc2nc(NCc3ccc(N4CCN(c5ccc(F)cc5)CC4)cc3)c3ccccc3n2n1 [Compound 6, N-(4-(4-(4-fluorophenyl)piperazin-1-yl)benzyl)-2-methylpyrazolo[1,5-a] quinazolin-5-amine] | < 4.40 | < 4.40 |  |  | 
7 | Cc1cc2nc(NC3CCCCC3)c3ccccc3n2n1 [Compound 5, N-cyclohexyl-2-methylpyrazolo[1,5-a] quinazolin-5-amine] | 5.16 | < 4.40 |  |  | 
8 | Cc1cc2nc(NC3CCCCCC3)c3ccccc3n2n1 [Compound 12, N-cycloheptyl-2-methylpyrazolo[1,5-a] quinazolin-5-amine] | 4.76 | < 4.40 | synergizes with clofazimine to kill M. abscessus |  | 
9 | Cc1cc2nc(NC3CCC(C(C)C)CC3)c3ccccc3n2n1 (centres unmarked) [Compound 25] | 5.59 | < 4.40 |  |  | 
10 | Cc1cc2nc(NCC3CCCCC3)c3ccccc3n2n1 [Compound 21, N-(cyclohexylmethyl)-2-methylpyrazolo[1,5-a] quinazolin-5-amine] | 4.92 | < 4.40 |  |  | 
11 | Cc1cc2nc(NC3CCCCCCC3)c3ccccc3n2n1 [Compound 9, N-cyclooctyl-2-methylpyrazolo[1,5-a] quinazolin-5-amine] | 4.59 | < 4.40 |  |  | 
12 | Cc1cc2nc(Nc3ccc(Oc4ccc(C(F)(F)F)cc4)cc3)c3ccccc3n2n1 [Compound 14, 2-methyl-N-(4-(4-(trifluoromethyl)phenoxy)phenyl)pyrazolo[1,5-a] quinazolin-5-amine] | < 4.40 | < 4.40 |  |  | 
13 | Cc1cc2nc(NC3CCC(C(F)(F)F)CC3)c3ccccc3n2n1 (centres unmarked) [Compound 23, 2-methyl-N-(4-(trifluoromethyl)cyclohexyl) pyrazolo[1,5-a] quinazolin-5-amine] | 5.05 | < 4.40 |  |  | 
14 | Cc1cc2nc(NC3CCC3)c3ccccc3n2n1 [Compound 18, N-cyclobutyl-2-methylpyrazolo[1,5-a] quinazolin-5-amine] | 5.01 | < 4.40 |  |  | 
15 | CC(C)/N=c1\cc2n(-c3ccc(Cl)cc3)c3ccccc3nc-2cc1Nc1ccc(Cl)cc1 [clofazimine, reference compound] |  |  |  | bacteriostatic | bactericidal
16 | Cc1cc2nc(N[C@H]3CCC[C@@H](c4ccc(C(F)(F)F)cc4)C3)c3ccccc3n2n1 [Compound 15A, 2-methyl-N-((1S,3R)-3-(4-(trifluoromethyl)phenyl)cyclohexyl)pyrazolo[1,5-a] quinazolin-5-amine] | 5.18 | < 4.40 |  |  | 
17 | Cc1cc2nc(NC3CCC(C)CC3)c3ccccc3n2n1 (centres unmarked) [Compound 24, 2-methyl-N-(4-methylcyclohexyl)pyrazolo [1,5-a]quinazolin-5-amine] | 5.04 | < 4.40 |  |  | 
18 | FC(F)(F)c1ccc([C@@H]2CCC[C@H](Nc3nc4ccnn4c4ccccc34)C2)cc1 [Compound 16A, N-((1S,3R)-3-(4-(trifluoromethyl)phenyl)cyclohexyl)pyrazolo[1,5-a] quinazolin-5-amine] | 4.48 | < 4.40 |  |  | 
19 | Cc1cc2nc(NCCc3ccc(C(F)(F)F)cc3)c3ccccc3n2n1 [Compound 1, 2-methyl-N-(4-(trifluoromethyl)phenethyl) pyrazolo[1,5-a]quinazolin-5-amine] | 4.92 | < 4.40 |  |  | 
20 | Cc1cc2nc(NC3CCCC3)c3ccccc3n2n1 [Compound 8, N-cyclopentyl-2-methylpyrazolo[1,5-a] quinazolin-5-amine] | 4.82 | < 4.40 |  |  | 
21 | Cc1cc2nc(NC3CCC(F)(F)CC3)c3ccccc3n2n1 [Compound 3, N-(4,4-difluorocyclohexyl)-2-methylpyrazolo[1,5-a] quinazolin-5-amine] | 4.70 | < 4.40 |  |  | 
22 | Cc1cc2nc(NC3CCC(C(C)(C)C)CC3)c3ccccc3n2n1 (centres unmarked) [Compound 26, N-(4-(tert-butyl)cyclohexyl)-2-methylpyrazolo[1,5-a] quinazolin-5-amine] | 5.36 | < 4.40 |  |  | 
23 | Cc1cc2nc(N[C@@H]3C[C@H]3c3ccc(F)c(F)c3)c3ccccc3n2n1 [Compound 19A, N-((1R,2S)-2-(3,4-difluorophenyl)cyclopropyl)-2-methylpyrazolo[1,5-a] quinazolin-5-amine] | 4.73 | < 4.40 |  |  | 
